The record followed here is patent publication EP4700025A1, “AMIDE COMPOUND, PHARMACEUTICAL COMPOSITION COMPRISING SAME, AND USE THEREOF” (Suzhou Genhouse Bio Co., Ltd., priority 2023, dated 2024).

By EC50 is commonly meant the midpoint of the concentration-response curve. A low value points to an effect from little substance. A word on the IC50: it is the midpoint of a concentration-inhibition curve.

The structures appear in SMILES notation. Read-outs that look alike come from different tables or passages of the source.

The test system of one data set is SDMA. Briefly: SDMA Inhibition Assay in HCT-116-MTAP^-/- cells. The class given is cell-based. As to conditions: Homo sapiens, 96 hours.
Another data set has as its target T1, CYP450 1A2 (Homo sapiens, UniProt P05177).
T1 construct: from tissue; host or cells: human liver microsomes
T1 sequence (P05177 1-516): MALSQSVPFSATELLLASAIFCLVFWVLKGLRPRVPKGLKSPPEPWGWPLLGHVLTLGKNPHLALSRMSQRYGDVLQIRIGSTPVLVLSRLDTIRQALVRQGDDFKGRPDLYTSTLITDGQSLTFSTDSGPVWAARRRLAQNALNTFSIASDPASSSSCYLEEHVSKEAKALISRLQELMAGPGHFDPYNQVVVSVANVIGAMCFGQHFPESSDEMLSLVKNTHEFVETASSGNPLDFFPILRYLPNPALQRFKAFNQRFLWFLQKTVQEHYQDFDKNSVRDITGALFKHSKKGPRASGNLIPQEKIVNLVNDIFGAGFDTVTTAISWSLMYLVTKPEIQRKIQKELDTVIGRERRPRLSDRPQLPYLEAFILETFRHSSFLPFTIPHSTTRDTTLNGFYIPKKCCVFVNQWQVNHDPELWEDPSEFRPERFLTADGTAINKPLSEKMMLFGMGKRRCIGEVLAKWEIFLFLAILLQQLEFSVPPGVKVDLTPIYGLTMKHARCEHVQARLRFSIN
Briefly: Inhibition of human liver microsome CYP450 enzyme 1A2. Type of data set: in vitro ADME. As for the experimental part:
(§1) 100 mM K-Buffer: 9.5 mL of stock solution A was mixed with 40.5 mL of stock solution B, the total volume was adjusted to 500 mL with ultrapure water, and the buffer was titrated to pH 7.4 with KOH or H3PO4. • Starting material A (1 M potassium dihydrogen phosphate): 136.5 g of potassium dihydrogen phosphate in 1 L of water; • Stock solution B ([…]): 174.2 g of potassium dihydrogen phosphate in 1 L of water.
(§2) The test substance powder was prepared into a stock solution at a certain concentration with DMSO or another organic solvent, which was then further diluted with a suitable organic solvent.
(§3) The liver microsomal in vitro incubation system for the CYP450 enzyme metabolism phenotype study was a biochemical reaction of the prepared liver microsomes supplemented with a redox coenzyme and an enzyme-specific selective inhibitor under simulated physiological temperature and physiological environment conditions.
(§4) The concentration of the parent drug or a metabolite thereof in the incubation solution was determined by LC-MS/MS. and the IC50 value was calculated.
For orientation: Liver microsomes are vesicles of endoplasmic reticulum, rich in cytochrome P450 enzymes.

Another data set addresses T2, CYP450 3A4 (Homo sapiens, UniProt P08684).
T2 construct: from tissue; host or cells: human liver microsomes
Briefly: Inhibition of human liver microsome CYP450 enzyme 3A4. The class given is in vitro ADME. As for the experimental part: as §1, §2, §3, §4

A further data set has as its system HCT-116-MTAP^-/- cells. Briefly: Pharmacodynamic study, HCT-116-MTAP^-/- subcutaneous xenograft. Type of data set: in vivo, mouse. Particulars: HCT-116-MTAP^-/- xenograft. Here is the method:
(§5) Human colon cancer HCT-116-MTAP^-1- cells were cultured in monolayer in vitro using the McCoy 5A culture medium (HyClone) containing 10% fetal bovine serum (BI) and 1% penicillin and streptomycin (Beyotime) in an incubator at 37 °C with 5% CO2. The cells were digested with trypsin 2 to 3 times weekly for passaging. When the saturation degree of the cells was 80% to 90%, the cells were collected, counted, and inoculated. 5 × 10^6 (0.1 mL) HCT-116-MTAP^-/- cells were subcutaneously inoculated on the right back of each mouse. On about day 15 after inoculation of the cells, the mean tumor volume reached 172 mm^3. The mice were randomly grouped for administration (the animals were divided into an administration group and a control group, with 6 animals in each group). The day of grouping was designated as d0, and intragastric administration was started on d1. The administration was performed once daily at an administration volume of 10 mL/kg. Vehicle control was administered to the control group. The tumor volume was measured 2 to 3 times weekly, and meanwhile, the mice were weighed and the data were recorded; daily observations were made to record the body surface signs of the mice. After the experiment was completed, the tumors were collected, weighed, and photographed for recording.
(§6) Calculation formula for tumor volume: Tumor volume (mm^3) = 1/2 × (a×b^2) [formula] (note: a represents long diameter and b represents short diameter) [formula]

The test system of the next data set is NCI-H838 cells. The data set is described as follows: Pharmacodynamic study, NCI-H838 subcutaneous xenograft. Type of data set: in vivo, mouse. As for the experimental part: as §5, with “non-small cell lung” for “colon”, “NCI-H838” for “HCT-116-MTAP^-1-”, “NCI-H838” for “HCT-116-MTAP^-/-”, “29” for “15”, “156” for “172”
as §6

T2 sequence (P08684 whole entry): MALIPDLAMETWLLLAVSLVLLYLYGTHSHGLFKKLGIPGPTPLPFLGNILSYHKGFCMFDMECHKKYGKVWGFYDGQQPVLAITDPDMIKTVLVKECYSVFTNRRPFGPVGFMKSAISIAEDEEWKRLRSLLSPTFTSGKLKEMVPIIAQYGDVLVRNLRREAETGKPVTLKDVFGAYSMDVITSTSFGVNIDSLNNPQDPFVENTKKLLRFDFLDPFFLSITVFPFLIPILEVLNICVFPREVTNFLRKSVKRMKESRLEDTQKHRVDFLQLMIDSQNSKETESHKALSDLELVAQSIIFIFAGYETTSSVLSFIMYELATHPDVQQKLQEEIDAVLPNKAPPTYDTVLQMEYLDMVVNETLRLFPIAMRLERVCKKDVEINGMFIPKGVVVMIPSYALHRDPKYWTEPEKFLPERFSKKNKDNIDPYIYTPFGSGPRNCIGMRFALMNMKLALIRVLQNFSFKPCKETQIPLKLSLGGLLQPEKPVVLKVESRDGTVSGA

`Cn1ncc2c(N)nc3cc(F)c(C(=O)N4CCOC[C@@H]4c4ccc5c(c4)OC(F)(F)O5)cc3c21` [Example I-7] returned an EC50 in the data set with SDMA of 2 nM. Besides, the IC50 is greater than 10000 nM against CYP450 1A2 (human, microsomes, pH 7.4) and greater than 10000 nM at CYP450 3A4 (human, microsomes, pH 7.4). Besides, the results for the “Day 28 TGI” value in the data set with HCT-116-MTAP^-/- cells (10 mpk PO QD) and in the data set on HCT-116-MTAP^-/- cells (30 mpk PO QD) were 84% and 91%, respectively.
As to `Cn1ncc2c(N)nc3cc(F)c(C(=O)N(Cc4ccc5c(c4)OC(F)(F)O5)C4CC4)cc3c21` [Example I-16], a half-maximal response in the data set on SDMA (EC50) required 1.2 nM. In addition, the “Day 31 TGI” value in the data set on NCI-H838 cells (10 mpk PO QD) is reported as 97%. For the same compound, the IC50 on CYP450 1A2 (human liver microsomes, 1A2, read-out: IC50) is greater than 10000 nM; at CYP450 3A4 (human liver microsomes, 3A4, read-out: IC50) it was greater than 10000 nM. Moreover, the “Day 28 TGI” value with HCT-116-MTAP^-/- cells (10 mpk PO QD) is 75%; with HCT-116-MTAP^-/- cells (30 mpk PO QD) it was 92%.
For the compound `Cn1ncc2c(N)nc3cnc(C(=O)N4CCOC[C@@H]4c4ccc5c(c4)OC(F)(F)O5)cc3c21` [Example I-38], in the data set on SDMA, the response was half-maximal at 1.5 nM (EC50). For the same compound, the “Day 31 TGI” value is recorded as 75% in the data set with NCI-H838 cells (10 mpk PO QD), 105% in the data set on NCI-H838 cells (30 mpk PO QD) and 107% in the data set with NCI-H838 cells (100 mpk PO QD). This compound also showed an IC50 on CYP450 3A4 (human, microsomes, pH 7.4) greater than 10000 nM.
